Source: US8519188B2, “Compounds which can be used for the treatment of cancers” (Marc-Henry Pitty, priority 2008, dated 2013)

Experiments:
[1] = system: MCF-7/adr adriamycin-resistant breast cancer cell line; test: Cell proliferation (CellTiter 96 AQueous MTS/PMS), MCF-7/adr; format: cell-based; settings: Homo sapiens, NCI/ADR-RES; MCF-7/adr; 72 hours of incubation; concentration that induces the death of 50% of the cells; read-out: CI50 for various cell lines (nM) MCF-7/adr
Description: (§1) The effects of the compounds of the invention on the proliferation of cancer cells were studied on various human cancer cell lines of various tissue origins (MCF-7: breast cancer, MCF-7/adr adriamycin-resistant breast cancer, ARH-77: myeloma, ARH-77/Dox: doxorubicin (other name for adriamycin)-resistant myeloma, HL-60: acute promyelocytic leukaemia, HL-60/R10: doxorubicin-resistant acute promyelocytic leukaemia). The cancer cells used for this study were incubated at 37° C. in the presence of one of the compounds of the invention added to the culture medium at various concentrations.
(§2) The cancer cell lines originate from the ATCC (American Type Culture Collection) in the case of MCF-7, ARH-77 and HL-60, from Pharmacell (Paris, France) for HL-60/R10, from Oncodesign (Dijon, France) for ARH-77/Dox and from the Pitié Salpetrière Hospital for MCF-7/adr. They were cultivated in a RPMI 1640 medium containing 2 mM L-glutamine and supplemented with 10% foetal calf serum. All the cell lines were maintained in culture at 37° C. in a moist atmosphere containing 5% CO2. Cell proliferation was evaluated using the “CellTiter 96® AQueous” reagent (Promega, Wis., USA) while adhering to the manufacturer's instructions. The cells were seeded in 96-well culture plates in a proportion of from 5,000 to 10,000 cells per well in 200 μl of culture medium. After 24 hours of preincubation at 37° C., the compounds of the invention dissolved in dimethyl sulphoxide (DMSO) were added individually to each of the wells in a proportion of 2 μl per well. After 72 hours of incubation at 37° C. in a moist atmosphere containing 5% CO2, 40 μL of a MTS/PMS ([3-(4,5-dimethylthiazol-2-yl)-5-(3-carboxymethoxyphenyl)-2-(4-sulphophenyl)-2H-tetrazolium phenazine methosulphate) solution were added to each well.

[2] = system: MCF-7 breast cancer cell line; test: Cell proliferation (CellTiter 96 AQueous MTS/PMS), MCF-7; format: cell-based; settings: Homo sapiens, MCF7; MCF-7; 72 hours of incubation; concentration that induces the death of 50% of the cells; read-out: CI50 for various cell lines (nM) MCF-7
Description: as §1, §2

For `O=C(NC1CCCCC1)C(c1cccs1)N(C(=O)CCl)c1ccc(C(F)(F)F)cc1` (centres unmarked) [Compound 129, 2-[(2-Chloroacetyl)-(4-trifluoromethylphenyl)amino]-N-cyclohexyl-2-thiophen-2-yl-acetamide], the IC50 [1] was 3.6 nM and the IC50 [2] was 77 nM.

`O=C(OCc1ccccc1)N1CCN(C(=O)C(c2cccs2)N(C(=O)CCl)c2ccc(Oc3ccccc3)cc2)CC1` (centres unmarked) [Compound 206] showed an IC50 [1] of 38 nM and an IC50 [2] of 2500 nM.

Work on `C#CC(=O)N(c1cccc(-c2ccnc(C)n2)c1)C(C(=O)NC1CCCCC1)c1cccs1` (centres unmarked) [Compound 38, Propynoic Acid (cyclohexylcarbamoylthiophen-2-yl-methyl)-[3-(2-methylpyrimidin-4-yl)-phenyl]amide] yielded an IC50 [1] of 1.9 nM and an IC50 [2] of 272 nM.

In the case of `C#CC(=O)N(c1ccc(Cl)cc1)C(C(=O)NC1CCCCC1)c1cccs1` (centres unmarked) [Compound 41, Propynoic Acid (4-chlorophenyl)(cyclohexylcarbamoylthiophen-2-yl-methyl)amide], the IC50 [1] is reported as 3.2 nM and the IC50 [2] is reported as 158 nM.

Work on `C#CC(=O)N(c1cccc(C(F)(F)F)c1)C(C(=O)NC1CCCCC1)c1ccc(SC)cc1` (centres unmarked) [Compound 88, Propynoic Acid [cyclohexylcarbamoyl-(4-methylsulphanylphenyl)methyl]-(3-trifluoromethylphenyl)amide] yielded an IC50 [1] of 1.4 nM and an IC50 [2] of 334 nM.

Work on `C#CC(=O)N(c1cccc(C(F)(F)F)c1)C(C(=O)NC1CCCCC1)c1cccc(Oc2ccccc2)c1` (centres unmarked) [Compound 90, Propynoic Acid [cyclohexylcarbamoyl-(3-phenoxyphenyl)methyl]-(3-trifluoromethylphenyl)amide] yielded an IC50 [1] of 2.2 nM and an IC50 [2] of 820 nM.

With `O=C(NC1CCCCC1)C(c1cccs1)N(C(=O)CCl)c1cccc2ccccc12` (centres unmarked) [Compound 134, 2-[(2-Chloroacetyl)naphthalen-1-yl-amino]-N-cyclohexyl-2-thiophen-2-yl-acetamide] the IC50 [1] was 74 nM and the IC50 [2] was over 1000 nM.

For `C#CC(=O)N(c1cccc(C(F)(F)F)c1)C(C(=O)NC1CCCCC1)c1ccccc1[N+](=O)[O-]` (centres unmarked) [Compound 85, Propynoic Acid [cyclohexylcarbamoyl-(2-nitrophenyl)methyl]-(3-trifluoromethylphenyl)amide], the IC50 [1] was 1.6 nM and the IC50 [2] was 177 nM.

Compound `COC(=O)CCNC(=O)C(c1cccs1)N(C(=O)CCl)c1cccc(C(F)(F)F)c1` (centres unmarked) [Compound 139, 3-{2-[(2-Chloroacetyl)-(3-trifluoromethylphenyl)amino]-2-thiophen-2-yl-acetylamino}propionic acid methyl ester] has an IC50 [1] of 63 nM and an IC50 [2] of 468 nM.

With `O=C(C(c1cccs1)N(C(=O)CCl)c1cccc(C(F)(F)F)c1)N1CCN(C2CCCCC2)CC1` (centres unmarked) [Compound 197] the IC50 [1] was 37 nM and the IC50 [2] was 1380 nM.

`C#CC(=O)N(c1cccc(C(F)(F)F)c1)C(C(=O)NC1CCCCC1)c1cccc(C#N)c1` (centres unmarked) [Compound 95, Propynoic Acid [(3-cyanophenyl)-cyclohexylcarbamoylmethyl]-(3-trifluoromethylphenyl)amide] gave an IC50 [1] of 1.4 nM and an IC50 [2] of 243 nM.

In the case of `C#CC(=O)N(c1cccc(C(F)(F)F)c1)C(C(=O)NC1CCCCC1)c1ccc(N2CCCC2)cc1` (centres unmarked) [Compound 101, Propynoic Acid [cyclohexylcarbamoyl-(4-pyrrolidin-1-yl-phenyl)methyl]-(3-trifluoromethylphenyl)amide], the IC50 [1] is reported as 1.1 nM and the IC50 [2] is reported as 416 nM.

In the case of `C#CC(=O)N(c1cccc([N+](=O)[O-])c1)C(C(=O)NC1CCCCC1)c1cccs1` (centres unmarked) [Compound 27, Propynoic Acid (cyclohexylcarbamoylthiophen-2-yl-methyl)-(3-nitrophenyl)amide], the IC50 [1] is reported as 0.8 nM and the IC50 [2] is reported as 110 nM.

`C#CC(=O)N(c1ccc(C(C)C)cc1)C(C(=O)NC1CCCCC1)c1cccs1` (centres unmarked) [Compound 57, Propynoic Acid (cyclohexylcarbamoylthiophen-2-yl-methyl)-(4-isopropylphenyl)amide] gave an IC50 [1] of 8.1 nM and an IC50 [2] of 599 nM.

`C#CC(=O)N(c1ccc(-c2csnn2)cc1)C(C(=O)NC1CCCCC1)c1cccs1` (centres unmarked) [Compound 28, Propynoic Acid (cyclohexylcarbamoylthiophen-2-yl-methyl)-(4-[1,2,3]thiadiazol-4-yl-phenyl)amide] gave an IC50 [1] of 2.2 nM and an IC50 [2] of 70 nM.

`N#Cc1cccc(N(C(=O)CCl)C(C(=O)NC2CCCCC2)c2cccs2)c1` (centres unmarked) [Compound 121, 2-[(2-Chloroacetyl)-(3-cyanophenyl)amino]-N-cyclohexyl-2-thiophen-2-yl-acetamide] showed an IC50 [1] of 70 nM and an IC50 [2] of 252 nM.

In the case of `C#CC(=O)N(c1cccc(C(F)(F)F)c1)C(C(=O)NC1CCCCC1)c1ccc(C(C)C)cc1` (centres unmarked) [Compound 89, Propynoic Acid [cyclo hexylcarbamoyl-(4-isopropylphenyl)methyl]-(3-trifluoromethylphenyl)amide], the IC50 [1] is reported as 2.2 nM and the IC50 [2] is reported as 825 nM.

Work on `C#CC(=O)N(c1ccc(N(CC)CC)cc1)C(C(=O)NC1CCCCC1)c1cccs1` (centres unmarked) [Compound 32, Propynoic Acid (cyclohexylcarbamoylthiophen-2-yl-methyl)-(4-diethylaminophenyl)amide] yielded an IC50 [1] of 2.9 nM and an IC50 [2] of 1260 nM.

For `C#CC(=O)N(c1ccc(Oc2ccccc2)cc1)C(C(=O)NC1CCCCC1)c1cccs1` (centres unmarked) [Compound 55, Propynoic Acid (cyclohexylcarbamoylthiophen-2-yl-methyl)-(4-phenoxyphenyl)amide], the IC50 [1] was 2.4 nM and the IC50 [2] was 694 nM.

`C#CC(=O)N(c1ccc(F)cc1F)C(C(=O)NC1CCCCC1)c1cccs1` (centres unmarked) [Compound 50, Propynoic Acid (cyclohexylcarbamoylthiophen-2-yl-methyl)-(2,4-difluorophenyl)amide] gave an IC50 [1] of 2 nM and an IC50 [2] of 282 nM.

`O=C(NC1CCCCC1)C(c1cccs1)N(C(=O)CCl)c1ccc2c(c1)OCO2` (centres unmarked) [Compound 135, 2-[1,3-Benzodioxol-5-yl-(2-chloroacetyl)amino]-N-cyclo hexyl-2-thiophen-2-yl-acetamide] gave an IC50 [1] of 19 nM and an IC50 [2] of 285 nM.

For `C#CC(=O)N(c1ccc(N2CCOCC2)cc1)C(C(=O)NC1CCCCC1)c1cccs1` (centres unmarked) [Compound 48, Propynoic Acid (cyclohexylcarbamoylthiophen-2-yl-methyl)-(4-morpholin-4-yl-phenyl)amide], the IC50 [1] was 1 nM.

In the case of `C#CC(=O)N(C(C(=O)NCc1ccccc1)c1cccs1)[C@@H](C)c1ccccc1` (stereo partly drawn) [Compound 8, Propynoic Acid (benzylcarbamoylthiophen-2-yl-methyl)-((S)-1-phenylethyl)amide], the IC50 [1] is reported as 30 nM.

Compound `C#CC(=O)N(c1cccc(C(F)(F)F)c1)C(C(=O)NC1CCCCC1)c1cccc2c1OCO2` (centres unmarked) [Compound 84, Propynoic Acid (benzo[1,3]dioxol-4-yl-cyclohexylcarbamoylmethyl)-(3-trifluoromethyl-phenyl)amide] has an IC50 [1] of 1.6 nM and an IC50 [2] of 250 nM.

`COc1ccccc1N(C(=O)CCl)C(C(=O)NC1CCCCC1)c1cccs1` (centres unmarked) [Compound 124, 2-[(2-Chloroacetyl)-(2-methoxyphenyl)amino]-N-cyclohexyl-2-thiophen-2-yl-acetamide] was tested, and the IC50 [1] was 27 nM and the IC50 [2] was over 2000 nM.

`C#CC(=O)N(c1cccc2ccccc12)C(C(=O)NC1CCCCC1)c1ccccc1` (centres unmarked) [Compound 176] gave an IC50 [1] of 1.9 nM.

For `C#CC(=O)N(Cc1ccc2c(c1)OCO2)C(C(=O)NCc1ccccc1)c1ccccc1F` (centres unmarked) [Compound 181], the IC50 [1] was 0.2 nM.

In the case of `C#CC(=O)N(CC(C)C)C(C(=O)NC1CCCCC1)c1cccs1` (centres unmarked) [Compound 12, Propynoic Acid (cyclohexylcarbamoylthiophen-2-yl-methyl)isobutylamide], the IC50 [1] is reported as 30 nM.

`C#CC(=O)N(CC1CC1)C(C(=O)NCc1ccccc1)c1cccs1` (centres unmarked) [Compound 18, Propynoic Acid (benzylcarbamoylthiophen-2-yl-methyl)cyclopropylmethylamide] gave an IC50 [1] of 30 nM.

`C#CC(=O)N(C(C(=O)NCc1ccccc1)c1cccs1)[C@H](C)c1ccccc1` (stereo partly drawn) [Compound 9, Propynoic Acid (benzylcarbamoylthiophen-2-yl-methyl)-((R)-1-phenylethyl)amide] showed an IC50 [1] of 30 nM.

For `C#CC(=O)N(c1cccc(C(F)(F)F)c1)C(C(=O)NC1CCCCC1)c1ccc(N(C)C)cc1` (centres unmarked) [Compound 76, Propynoic Acid [cyclohexylcarbamoyl-(4-dimethylaminophenyl)methyl]-(3-trifluoromethylphenyl)amide], the IC50 [1] was 1.5 nM.

`C#CC(=O)N(c1cccc(C(F)(F)F)c1)C(C(=O)NC1CCCCC1)c1ccccc1` (centres unmarked) [Compound 66, Propynoic Acid (cyclohexylcarbamoyl phenylmethyl)-(3-trifluoromethylphenyl)amide] gave an IC50 [1] of 1 nM.

`C#CC(=O)N(CC(C)C)C(C(=O)NCc1ccccc1)c1cccs1` (centres unmarked) [Compound 16, Propynoic Acid (benzylcarbamoylthiophen-2-yl-methyl)isobutylamide] gave an IC50 [1] of 1 nM.
